Patent US5430062A, “Stilbene derivatives as anticancer agents” (priority 1993, dated 1995)
Values joined by “and” are separate entries in the source; they are usually repeats but may differ in a detail not shown here. Equal values may be shown once.

System: HL-60 (TB) leukemia
Assay: Cytotoxicity, HL-60(TB) leukemia
Conditions: Hydrochloride

COc1cc(CNc2ccc(C)cc2)cc(OC)c1OC.Cl [110a, 4-Methyl-N-(3,4,5-trimethoxybenzyl)aniline Hydrochloride]
Log10 GI50, HL-60 (TB): < -7.00 and -7.05
